Reference: US20100093613A1, “METHODS FOR IDENTIFYING AGENTS AND THEIR USE FOR THE PREVENTION OR STABILIZATION OF FIBROSIS” (priority 2007, published 2010)

Legend:
[1] = tested on: Fibroblasts; test: BioMAP HDF3CGF system (IL-1β + TNF-α + IFN-γ + EGF + bFGF + PDGFbb), scoring of readout parameters; assay type: cell-based, human; conditions: for PAI-1 score: desired change decrease; for MMP-1 score: desired change increase; for EGFR score: desired no change or increase
Description: In the “HDF-3CGF” system, dermal fibroblast cells, usually primary human dermal fibroblast cells are cultured alone or in the presence of lung epithelial cells, usually primary human lung epithelial cells, with two or more factors selected from: TNF, IL-1, IFNγ, EGF, bFGF+HSPG (heparan sulfate proteoglycan), and PDGFbb. In some embodiments three or more factors are present, four or more, five or more, or all six factors are present.
Human neonatal dermal fibroblasts (HDFn) or adult lung fibroblasts (HDFp) or fibroblasts from tissues such as liver, heart, or kidney are used. Cells are cultured at 3×10^4 cells/ml in DMEM/F12 (50/50) from Cellgro, supplemented with LSGS kit (from Cascade Biologics); fetal bovine serum, 2% v/v, hydrocortisone 100 nM, human epidermal growth factor 10 ng/ml, basic fibroblast growth factor 3 ng/ml and heparin 10 μg/ml, and penicillin/streptomycin amphotericin B solution (PSA), until confluency. Medium is replaced with DMEM/F12 with only penicillin/streptomycin amphotericin B solution (PSA), then 24 hours later, the following are applied:
After another 24, 48 or 72 hours incubation (37° C., 5% CO2) the cultures are evaluated for the following parameters: ICAM, VCAM, CD40, CD90, IP-10, MCP-1, Collagen I, Mig, m-CSF, TIMP-2, PAI-I, IL-8, Collagen III, HLA-DR, MMP-1, MMP-9, proliferation, TGF-b1, eotaxin-3, decorin, alpha-SMC, MLCK, I-TAC, EGFR, TIMP-1.
Cell culture. […] Human dermal fibroblasts were pooled from 3 donors, cultured according to standard methods, and plated confluent 24 h before stimulation. Cell culture medium for all systems containing fibroblasts and keratinocytes contained low hydrocortisone. […] Concentrations/amounts of agents added to confluent microtiter plates to build each system: cytokines (IL-1β, 1 ng/ml; TNF-α, 5 ng/ml; IFN-γ, 20 ng/ml; IL-4, 5 ng/ml), activators (SAg, 20 ng/ml; histamine, 10 μM; zymosan, 10 μg/ml; or LPS, 2 ng/ml), growth factors (TGF-β, 5 ng/ml; EGF, bFGF, and PDGF-BB, 10 ng/ml), and PBMC (7.5×10^4 cells/well) or macrophages (3.5×10^4 cells/well).

[2] = tested on: Fibroblasts; test: BioMAP HDF3CT system (IL-1β + TNF-α + IFN-γ + TGF-β), scoring of readout parameters; assay type: cell-based, human
Description: (§1) Each screened compound is scored according to its modulation of the selected readout parameters. Compounds receive a positive score (score of 1) or negative score (score of 0) for each readout parameter set forth in Table 2 that is modulated in the desired direction. […] Parameters may be penalized by making the positive score a −1 for parameters where regulation is opposite to the desired direction.
(§2) Cell culture. Human umbilical vein endothelial cells (HUVEC) were pooled from multiple donors, cultured according to standard methods, and plated into microtiter plates at passage 4. Cell culture medium for all systems containing HUVEC included hydrocortisone. Coronary artery smooth muscle cells (CASM3C) and umbilical artery smooth muscle cells (HSM3C) were cultured according to standard procedures. Peripheral blood mononuclear cells (PBMC) were prepared from buffy coats from normal human donors according to standard methods. Monocyte-derived macrophages were differentiated in the presence of M-CSF for 7 d according to standard procedures. Human dermal fibroblasts were pooled from 3 donors, cultured according to standard methods, and plated confluent 24 h before stimulation. Cell culture medium for all systems containing fibroblasts and keratinocytes contained low hydrocortisone. Epidermal keratinocytes and bronchial epithelial cells from 3 donors were cultured according to standard procedures and pooled when plated into microtiter plates. For keratinocyte-fibroblast co-cultures, cells were plated simultaneously 24 h before stimulation. For bronchial epithelial cell-fibroblast co-cultures, fibroblasts were plated and cultured 48 before addition of epithelial cells, then cultured another 24 hr before stimulation. Concentrations/amounts of agents added to confluent microtiter plates to build each system: cytokines (IL-1β, 1 ng/ml; TNF-α, 5 ng/ml; IFN-γ, 20 ng/ml; IL-4, 5 ng/ml), activators (SAg, 20 ng/ml; histamine, 10 μM; zymosan, 10 μg/ml; or LPS, 2 ng/ml), growth factors (TGF-β, 5 ng/ml; EGF, bFGF, and PDGF-BB, 10 ng/ml), and PBMC (7.5×10^4 cells/well) or macrophages (3.5×10^4 cells/well).
(§3) Compounds. Compounds were prepared in the solvent directed, added 1 hr before stimulation of the cells, and were present during the 24 hr stimulation period for the measurement of parameters listed in Table 2. For proliferation, compounds added 1 hr before stimulation of the cells with cytokines, and were present during the 48 to 72 hr assay. If prepared in DMSO, the final concentration of solvent was 0.1% or less.
(§4) Readout Parameter Measurements. The levels of readout parameters were measured by ELISA. Briefly, microtiter plates are treated, blocked, and then incubated with primary antibodies or isotype control antibodies (0.01-0.5 microg/ml) for 1 hr. After washing, plates were incubated with a peroxidase-conjugated anti-mouse IgG secondary antibody or a biotin-conjugated anti-mouse IgG antibody for 1 hr followed by streptavidin-HRP for 30 min. Plates were washed and developed with TMB substrate and the absorbance (OD) was read at 450 nm (subtracting the background absorbance at 650 nm). Quantitation of TNF-alpha or PGE2 in the LPS system was done using a commercially available kit according to the manufacturer's directions. Proliferation of endothelial cells (HUVEC and CAEC), smooth muscle cells (SMC and CASMC), and PBMC (T cells) was quantitated by Alamar Blue reduction or SRB.
(§5) Data analysis. Mean OD values for each parameter were calculated for compounds run in duplicate. The mean value (or single well OD value) for each parameter in a treated sample was then divided by the mean value from an appropriate control to generate a ratio. All ratios were then log10 transformed. 95% significance prediction envelopes (grey shading in Figures) were calculated for historical controls.

[3] = tested on: Fibroblasts; test: BioMAP HDFT system (TGF-β), scoring of readout parameters; assay type: cell-based, human; design: key to PAI-1 score: 1 = modulated in desired direction, 0 = not (no penalties applied); conditions: HDFT; desired change decrease
Description: as §1
(§6) Compounds were first selected to inhibit PAI-1 in the HDFT as an indication of TBF-b signaling inhibition without being cytotoxic. […] Blank spots in Table 3 were where parameter was not assayed. Penalties were not applied for this scoring.
as §2, §3, §4
Data analysis. Mean OD values for each parameter were calculated for compounds run in duplicate. The mean value (or single well OD value) for each parameter in a treated sample was then divided by the mean value from an appropriate control to generate a ratio.

[4] = tested on: Bronchial epithelial cells; test: BioMAP BE3C system (IL-1β + TNF-α + IFN-γ), scoring of readout parameters; assay type: cell-based, human; conditions: for PAI-1 score: desired change decrease
Description: as §1, §2, §3, §4, §5

[5] = tested on: Umbilical Vein Endothelial Cells; test: BioMAP 3C system (IL-1β + TNF-α + IFN-γ), scoring of readout parameters; assay type: cell-based, human; conditions: for HLA-DR score: desired change decrease; for uPAR score: desired change increase
Description: as §1, §2, §3, §4, §5

[6] = tested on: human primary cells; test: Total score for desired parameter modulation over the BioMAP systems of Table 1; assay type: cell-based; conditions: penalties not applied
Description: as §1
The relative importance of each parameter may be weighted by the screener to select those parameters of greatest interest for a particular application.
as §6
BioMAP Systems are designed to model complex human disease biology in a practical in vitro format. This is achieved by stimulating human primary cells (single cell type or defined mixtures of cell types) such that multiple disease-relevant signaling pathways are simultaneously active. The choice of cell types and stimulations is guided by the knowledge of disease biology and mechanisms. Incorporating appropriate cell types and stimulating signaling pathways relevant to disease states allows association of biological activities detected in BioMAP Systems with disease processes. Drug effects are then recorded by measuring biologically meaningful protein readouts that provide coverage of biological space of interest (e.g., inflammation, tissue remodeling) and allow discrimination between different drug classes tested.
as §2, §3
Readout Parameter Measurements. The levels of readout parameters were measured by ELISA.

[7] = tested on: Peripheral Blood Mononuclear Cells + Umbilical Vein Endothelial Cells; test: BioMAP LPS system (TLR4), scoring of readout parameters; assay type: cell-based, human; conditions: LPS (by position); desired change decrease
Description: as §1, §2, §3, §4, §5

[8] = tested on: Bronchial epithelial cells; test: BioMAP BE4T system (IL-4 + TNF-a), scoring of readout parameters; assay type: cell-based, human; design: key: 1 = modulated in desired direction, 0 = not (−1 = opposite); conditions: for PAI-1 score: desired change decrease; for EGFR score: desired no change or increase
Description: In the “BE4T” system, bronchial epithelial cells, usually primary human bronchial epithelial cells, are cultured in the presence of TNF-α and IL-4.
as §1, §2, §3, §4, §5

[9] = PMID 17023731, PMID 8421998; cited from earlier work

| Structure (SMILES) | PAI-1 score [1] | MMP-1 score [1] | EGFR score [1] | MMP-1 score [2] | PAI-1 score [3] | HLA-DR score [4] | MMP-1 score [4] | PAI-1 score [4] | HLA-DR score [5] | uPAR score [5] | Score (Fraction correctly modulated parameters out of 45-58 total) [6] | TF score [7] | uPA score [8] | PAI-1 score [8] | EGFR score [8] | anti-fibrotic activity [9] |
| --- | --- | --- | --- | --- | --- | --- | --- | --- | --- | --- | --- | --- | --- | --- | --- | --- |
| Cc1cc(C2CCCCC2)n(O)c(=O)c1.NCCO [Ciclopirox Ethanolamine] | 1 | 0 | 0 | 0 | 1 | 0 | 0 | 0 | 0 | 0 | 0.31 | 0 | 0 | 0 | 1 |  |
| Cc1[nH]ccc2c1[nH]c1cc(=O)ccc12 [Harmol] | 1 | 0 | 0 | 0 | 1 | 0 | 0 | 1 | 0 | 0 | 0.29 | 1 | 0 | 0 | 0 |  |
| COc1cc(/C=C/C(=O)N2CCC=CC2=O)cc(OC)c1OC [Piperlongumine] | 1 | 0 | 0 | 0 | 1 | 0 | 0 | 0 | 0 | 0 | 0.47 | 1 | 0 | 0 | 0 |  |
| C=C(NC(=O)C(=C)NC(=O)c1csc(C2=N[C@@H]3c4csc(n4)[C@H]4NC(=O)c5csc(n5)[C@H]([C@](C)(O)[C@@H](C)O)NC(=O)[C@H]5CSC(=N5)/C(=C/C)NC(=O)[C@H]([C@@H](C)O)NC(=O)c5csc(n5)[C@]3(CC2)NC(=O)[C@H](C)NC(=O)C(=C)NC(=O)[C@H](C)NC(=O)[C@H]([C@@H](C)CC)N[C@@H]2C=Cc3c([C@H](C)O)cc(nc3[C@H]2O)C(=O)O[C@@H]4C)n1)C(N)=O [Thiostrepton] | 1 | 0 | 0 | 0 | 1 | 0 | 0 | 0 | 0 | 0 | 0.42 | 1 | 0 | 0 | 1 |  |
| CC(=O)S[C@@H]1CC2=CC(=O)CC[C@]2(C)[C@H]2CC[C@@]3(C)[C@@H](CC[C@@]34CCC(=O)O4)[C@H]12 [spironolactone] |  |  |  |  |  |  |  |  |  |  | high scores |  |  |  |  | known anti-fibrotic activity |
